Assays:
Type in all cases: cell-based
IL-8 = assay: IFN-γ-induced release of IL-8 by normal human keratinocytes; settings: for IL-8: Example 12, K02-1H6, IFN-γ 1000 U/ml, 48 h + 24 h
Procedure: In order to evaluate the anti-inflammatory activity of terminoloside, of madecassoside and of the mixture of heterosides, we studied the modulatory effects of these three active agents with respect to the production and release of proinflammatory epidermal cytokines (IL-1α, IL-8, PGE-2) by human keratinocytes in culture, subjected to an irritative stress induced either with interferon-gamma (IFN-γ) or with PMA. Human keratinocytes were isolated from human skin. The cells were cultured in serum-free KGM medium (Keratinocyte Growth Medium, sold by the company Clonetics®), according to the usual techniques set up in the laboratory, at 37° C. in a humid air-CO2 (95%-5%) atmosphere. The cells were seeded into 25 cm^2 flasks and passaged regularly before reaching confluency. The principle of the assay is based on evaluating the production of proinflammatory cytokines by human keratinocytes, in response to an irritative stress. The method is based on measuring the intracellular amount of IL-1α and of the amounts of IL-8 and of PGE-2 released into the extracellular medium by keratinocytes cultured in the absence and in the presence of the products being studied, and stimulated even with interferon-gamma (IFN-γ) or with PMA (phorbol-12-myristate-13-acetate).
The study was carried out on keratinocytes isolated from foreskin of young children (strain K02-1H6).
1. Treatment of the cells for 48 h with the product being studied before induction of the irritative stress; 2. induction of the irritative stress: IFN-γ (1000 U/ml); 3. incubation of the “activated” cells, for 24 h, in the presence of the product being studied; 4. assay: IL-8 (extracellular) and IL-1α (intracellular). Cellular protein assay.
Tables 32 to 34 below group together the amounts of IL-8 obtained after activation of the cells (+IFN-γ), and also the basal amounts (−IFN-γ). The IFN-γ-induced production of IL-8 and the anti-inflammatory activity (AIA) were calculated, for each concentration of active agent, according to: AIA=[(IL-8(control cells+IFN)−[…]/IL-8(control cells+IFN)]×100

[1] = tested on: human keratinocytes, strain K02-1H4; assay: Cytotoxicity, Neutral Red assay on human keratinocytes strain K02-1H4; settings: for Viability (72 h), % of control: Example 12, K02-1H4, 72 h
Procedure: In addition, added to the cytotoxicity study was an assay on human keratinocytes, strain K02-1H4, in order to confirm that the concentrations were nontoxic on the target cells.
[…] […] The cell viability was determined by means of a Neutral Red assay.
Added to the cytotoxicity study was an assay on human keratinocytes (strain K02-1H4) in order to confirm the nontoxicity of the concentrations on the “target” cells. Table 24 below groups together all the results (cell viability as % of control).

[2] = tested on: HaCaT human keratinocytes; assay: Cytotoxicity, Neutral Red colorimetric assay on HaCaT human keratinocytes; settings: for Viability (24 h), % of control / Viability (72 h), % of control: Example 12, HaCaT
Procedure: The cytotoxicity was studied on HaCaT human keratinocytes seeded into 96-well plates at a rate of 20×10^3, broad range, and 10×10^3, limited range, cells per well. The cell viability is evaluated by means of a colorimetric assay with Neutral Red. Neutral Red is a weakly cationic dye that penetrates cell membranes by means of a nonionic diffusion phenomenon and binds intracellularly to the phosphate and/or carboxylic groups of the lysosomal matrix. Modifications in the accumulation and retention of Neutral Red are observed when the cell membranes are damaged. The optical density of the solution obtained after incubation of the cells in the presence of Neutral Red is therefore proportional to the number of living cells.
A broad range of 9 concentrations, from 0.001 to 1 mg/ml, was initially tested. The various test solutions were prepared in DMEM medium, […], supplemented with 10 vol % of FCS, fetal calf serum. […] The cell viability was evaluated by means of a Neutral Red colorimetric assay, after 72 hours of incubation. […] From 1 mg/ml, a slight dose-dependent cytotoxic effect is observed. […]
A second limited range of between 0.075 and 5 mg/ml was tested. […] The cell viability was evaluated by means of a Neutral Red colorimetric assay, after 72 hours of incubation. The results obtained were similar to those recorded in the absence of DMSO.

PGE-2 = assay: PMA-induced release of PGE-2 by human keratinocytes; settings: for PGE-2 (extracellular): Example 12, K02-1H6, PMA 10 ng/ml, 48 h + 24 h
Procedure: The principle of the assay is based on evaluating the production of pro-inflammatory cytokines by human keratinocytes in response to an irritative stress. […]
Given the lack of effect of IFN-γ on the production and release of PGE-2, the anti-inflammatory effect of the active agents was studied on normal human keratinocytes (strain K02-1H6) stimulated with PMA. Each active agent was tested at 4 concentrations:
1. Treatment of the cells, for 48 h, with the product being studied before induction of the irritative stress.
2. Induction of the irritative stress: PMA (10 ng/ml).
3. Incubation of the “activated” cells, for 24 h, in the presence of the product being studied.
4. Assay of PGE-2 (extracellular) and assay of cellular proteins.
Tables 37 to 39 below group together the amounts of PGE-2 (pg/μg prot.) obtained after activation of the cells (+PMA), and also the basal amounts (−PMA). The PMA-induced production of PGE-2 and the anti-inflammatory activity (AIA) were calculated, for each concentration, according to: PGE-2 production=[(PGE-2(+PMA)−PGE-2(−PMA)] AIA=[(PGE-2 production(control cells)−PGE-2 production(treated cells))/PGE-2 production(control cells)]×100

## CC1OC(O[C@@H]2C(CO)OC(OCC3OC(OC(=O)C4CC(C)(C)CC5C6=CCC7C(CC(O)C8C(C)(CO)C(O)C(O)CC78C)C6(C)CCC45)[C@@H](O)C(O)[C@@H]3O)[C@@H](O)C2O)[C@@H](O)C(O)[C@H]1O (stereo partly drawn) [Terminoloside, 1-[O-α-L-rhamnopyranosyl-(1-4)-O-β-glucopyranosol-(1-6)]-O-β-D-glucopyranose 2α,3β,6β,23-tetrahydroxyolea-12-en-28-oate]
IL-8; 0.1 mg/ml
  IL-8: 0.862 pg/μg prot
IL-8; 0.25 mg/ml
  IL-8: 0.762 pg/μg prot
IL-8; 0.5 mg/ml
  IL-8: 0.708 pg/μg prot
IL-8; 1 mg/ml
  IL-8: 0.492 pg/μg prot
IL-8; Homo sapiens, Keratinocyte, Example 12, IFN-γ 1000 U/ml, 0.1 mg/ml, read-out: Anti-inflammatory activity (%), IL-8
  inhibition at 100 µg/mL: 0%
IL-8; Homo sapiens, Keratinocyte, Example 12, IFN-γ 1000 U/ml, 0.25 mg/ml, read-out: Anti-inflammatory activity (%), IL-8
  inhibition at 250 µg/mL: 9%
IL-8; Homo sapiens, Keratinocyte, Example 12, IFN-γ 1000 U/ml, 0.5 mg/ml, read-out: Anti-inflammatory activity (%), IL-8
  inhibition at 500 µg/mL: 15%
IL-8; Homo sapiens, Keratinocyte, Example 12, IFN-γ 1000 U/ml, 1 mg/ml, read-out: Anti-inflammatory activity (%), IL-8
  inhibition at 1000 µg/mL: 42%
[1]; 0.25 mg/ml
  Viability (72 h), % of control: 101%
[1]; 0.5 mg/ml
  Viability (72 h), % of control: 103%
[1]; 0.75 mg/ml
  Viability (72 h), % of control: 103%
[1]; 1.0 mg/ml
  Viability (72 h), % of control: 102%
[1]; 2.5 mg/ml
  Viability (72 h), % of control: 99%
[1]; 5 mg/ml
  Viability (72 h), % of control: 96%
[1]; 10 mg/ml
  Viability (72 h), % of control: 69%
[1]; K02-1H4, 72 h of incubation
  nontoxic concentrations: less than or equal to 2.5 mg/ml
[2]; 0.05 mg/ml
  Viability (24 h), % of control: 105%
[2]; 0.1 mg/ml
  Viability (24 h), % of control: 104%
  Viability (72 h), % of control: 100%
[2]; 0.25 mg/ml
  Viability (24 h), % of control: 105%
  Viability (72 h), % of control: 101%
[2]; 0.5 mg/ml
  Viability (24 h), % of control: 105%
  Viability (72 h), % of control: 101%
[2]; 1 mg/ml
  Viability (24 h), % of control: 104%
  Viability (72 h), % of control: 102%
[2]; 2.5 mg/ml
  Viability (24 h), % of control: 100%
  Viability (72 h), % of control: 103%
[2]; 5 mg/ml
  Viability (24 h), % of control: 81%
  Viability (72 h), % of control: 93%
[2]; 10 mg/ml
  Viability (24 h), % of control: 73%
  Viability (72 h), % of control: 69%
[2]; 0.75 mg/ml
  Viability (72 h), % of control: 103%
[2]; 7.5 mg/ml
  Viability (72 h), % of control: 86%
[2]; HaCaT, 24 h of contact
  concentrations inducing no significant modification of the cell response to Neutral Red: 2500 µg/mL
PGE-2; Example 12, 0.1 mg/ml
  PGE-2 production (+PMA minus −PMA): 494.2
PGE-2; Example 12, 0.25 mg/ml
  PGE-2 production (+PMA minus −PMA): 441.0
PGE-2; Example 12, 0.5 mg/ml
  PGE-2 production (+PMA minus −PMA): 279.9
PGE-2; Example 12, 1 mg/ml
  PGE-2 production (+PMA minus −PMA): 115.2
PGE-2; 0.1 mg/ml
  PGE-2 (extracellular): 660.0 pg/μg prot
PGE-2; 0.25 mg/ml
  PGE-2 (extracellular): 606.80 pg/μg prot
PGE-2; 0.5 mg/ml
  PGE-2 (extracellular): 445.7 pg/μg prot
PGE-2; 1 mg/ml
  PGE-2 (extracellular): 321.0 pg/μg prot
PGE-2; Example 12, PMA 10 ng/ml, 1 mg/ml
  Anti-inflammatory activity (%), PGE-2: 68.6%
PGE-2; Homo sapiens, Keratinocyte, Example 12, PMA 10 ng/ml, 0.1 mg/ml, read-out: Anti-inflammatory activity (%), PGE-2
  inhibition at 100 µg/mL: 0%
PGE-2; Homo sapiens, Keratinocyte, Example 12, PMA 10 ng/ml, 0.25 mg/ml, read-out: Anti-inflammatory activity (%), PGE-2
  inhibition at 250 µg/mL: 10.8%
PGE-2; Homo sapiens, Keratinocyte, Example 12, PMA 10 ng/ml, 0.5 mg/ml, read-out: Anti-inflammatory activity (%), PGE-2
  inhibition at 500 µg/mL: 43.4%
PGE-2; Homo sapiens, Keratinocyte, Example 12, PMA 10 ng/ml, 1 mg/ml, read-out: Anti-inflammatory activity (%), PGE-2
  inhibition at 1000 µg/mL: 69%

Reference: patent publication US8486900B2, “Method for preparing a Centella asiatica extract rich in madecassoside and in terminoloside” (Bayer Consumer Care AG, priority 2002, dated 2013)
